The values below come from patent publication EP3381906A1, “COMPOUNDS FOR USE AS HEPARANASE INHIBITORS” (Leadiant Biosciences SA, priority 2017, dated 2018).

Where two headings read alike, the source gives them in different places.

One test deals with T1, heparanase (Homo sapiens, UniProt Q9Y251).
T1 construct: 100 µM fondaparinux, 2.5 nM heparanase and serial dilutions of test compounds
T1 sequence (Q9Y251 158-543 limits assumed): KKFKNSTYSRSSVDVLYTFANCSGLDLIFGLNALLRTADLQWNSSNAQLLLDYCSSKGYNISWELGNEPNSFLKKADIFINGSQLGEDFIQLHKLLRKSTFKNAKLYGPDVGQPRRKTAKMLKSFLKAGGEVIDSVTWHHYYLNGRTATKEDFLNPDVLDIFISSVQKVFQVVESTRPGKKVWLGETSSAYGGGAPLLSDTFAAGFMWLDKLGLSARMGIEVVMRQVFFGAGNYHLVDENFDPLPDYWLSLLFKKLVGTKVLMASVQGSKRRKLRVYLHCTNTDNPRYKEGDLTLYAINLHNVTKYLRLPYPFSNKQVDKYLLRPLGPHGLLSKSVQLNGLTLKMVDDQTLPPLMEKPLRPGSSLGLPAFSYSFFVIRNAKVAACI
T1 sequence (Q9Y251 36-109 limits assumed): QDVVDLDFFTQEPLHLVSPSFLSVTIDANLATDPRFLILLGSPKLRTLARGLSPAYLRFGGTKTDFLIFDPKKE
The test is described as follows: AGA*IA assay: heparanase-catalyzed fondaparinux cleavage, colorimetric (WST-1). It is filed as biochemical. The protocol: All compounds were tested in a simple, accurate and robust microplate assay based on the cleavage of the synthetic heparin fragment, the pentasaccharide Fondaparinux (AGA*IA). This assay was originally developed by Hammond and coworkers [Hammond E, Li CP, Ferro V. Development of a colorimetric assay for heparanase activity suitable for kinetic analysis and inhibitor screening. […] Fondaparinux is cleaved by heparanase to generate a reducing disaccharide, which can be quantitatively measured via a colorimetric or a fluorescence assay, the last by the fluorescent sensor polymer-H [Schiemann S, Lühn S, Alban S. Development of both colorimetric and fluorescence heparinase activity assays using fondaparinux as substrate.
The assay measures the appearance of the disaccharide product of heparanase-catalyzed fondaparinux cleavage colorimetrically using the tetrazolium salt WST-1. Assay was essentially performed as described with minor modifications. Briefly, NUNC ELISA 96-well plates were pre-treated with a solution of 4% BSA (bovin serum albumin) in phosphate-buffered saline containing 0.05% Tween 20 (PBST), for 2 h at 37°C, then washed three times with PBST, dried by tapping on paper towel and stored at -20°C. Before use, once again, the plates were washed with PBST.
Then, the absorbance at 560 nm was measured through a microplate reader (Victor 3, Perkin Elmer).
Finally, the measurements were corrected by subtracting both the reagent background and the inner absorbance value of test compound.
On the technique in general: Tetrazolium assays rely on reduction of a dye to a coloured formazan, in cell work by metabolically active cells.

Test [1] deals with U2OS (human osteosarcoma). The test is described as follows: SRB Cell Cytotoxicity Assay. It is filed as cell-based. To be noted: treated for 72h, read-out: Concentration of test compounds at which the cell growth is inhibited by 50 % U2OS. The source says: (§1) SRB Cell Cytotoxicity Assay is an assay based upon the quantitative staining of cellular proteins by sulforhodamine B (SRB). This assay can be used for high-throughput drug screening (Vichai & Kirkitara, Nature Protocol. 2006, 1, 112). Sulforhodamine B is an anionic aminoxanthene dye that forms an electrostatic complex with the basic amino acid residues of proteins under moderately acid conditions, which provides a sensitive linear response.
(§2) To assess a putative antiproliferative activity of the selected compounds, HT1080 (human fibrosarcoma), U87MG (human glioblastoma astrocytoma) and U2OS (human osteosarcoma) cell lines were treated for 72h, in triplicate, with increasing concentrations of heparanase inhibitors. Inhibition of cell proliferation was then measured by the classical colorimetric SRB Cell Cytotoxicity assay. Absorbance was measured by spectrophotometer at a wavelength of 510 nm and cell proliferation was determined as percent with respect to control cells (cells treated with the vehicle alone). EC50 values were then determined by GraphPad Prism.

Test [2] has as its system HT1080 (human fibrosarcoma). Kind of test: SRB Cell Cytotoxicity Assay. As to conditions: HT-1080, HT1080, treated for 72h, read-out: Concentration of test compounds at which the cell growth is inhibited by 50 % HT1080. It counts as cell-based.
From the text: as §1, §2

Test [3] concerns U87MG (human glioblastoma astrocytoma). Kind of test: SRB Cell Cytotoxicity Assay. It is filed as cell-based. As to conditions: U-87 MG, treated for 72h, read-out: Concentration of test compounds at which the cell growth is inhibited by 50 % U87MG.
From the text: as §1, §2

[4] abbreviates: 2.5 nM heparanase, 100 µM fondaparinux, pH 5.0, 3 h at 37°C, class symbols, read-out: AGAIA assay (IC50).

Consider `O=C(O)c1cc(NC(=O)c2ccc(Oc3ccc(C(=O)Nc4cc(C(=O)O)cc(C(=O)O)c4)cc3)cc2)cc(C(=O)O)c1` [SST0808, 5-[[4-[4-[(3,5-dicarboxyphenyl)carbamoyl]phenoxy]benzoyl]amino]benzene-1,3-dicarboxylic acid], for which the IC50 (commonly the concentration that inhibits the measured activity by half) on heparanase (setting [4]) was in the range of 1000 to 10000 nM.
`O=C(Nc1ccc(NC(=O)c2ccc(N=Nc3ccc(O)cc3O)cc2)c(S(=O)(=O)O)c1)Nc1ccc(NC(=O)c2ccc(N=Nc3ccc(O)cc3O)cc2)c(S(=O)(=O)O)c1` [SST0610]: the IC50 on heparanase (setting [4]) fell in the range of 1000 to 10000 nM.
Still for that read-out and setting: for `O=C(Nc1csc(-c2ccc(Oc3ccc(-c4nc(NC(=O)c5ccc(C(=O)c6ccccc6)cc5)cs4)cc3)cc2)n1)c1ccc(C(=O)c2ccccc2)cc1` [SST0804] the value was 1000 to 10000 nM; for `O=C(Nc1cccc(-c2nc3ccccc3s2)c1)c1ccc(Oc2ccc(C(=O)Nc3cccc(-c4nc5ccccc5s4)c3)cc2)cc1` [SST0802, N-[3-(1,3-benzothiazol-2-yl)phenyl]-4-[4-[[3-(1,3-benzothiazol-2-yl)phenyl]carbamoyl]phenoxy]benzamide], 1000 to 10000 nM.
Same read-out and setting: for `O=C(Nc1ccc(Br)cc1C(=O)O)c1ccc(Oc2ccc(C(=O)Nc3ccc(Br)cc3C(=O)O)cc2)cc1` [SST0604, 5-bromo-2-[[4-[4-[(4-bromo-2-carboxyphenyl)carbamoyl]phenoxy]benzoyl]amino]benzoic acid] the value was 1000 to 10000 nM; for `O=C(Nc1ccc(Oc2ccc(NC(=O)c3ccc4c(c3)C(=O)N(c3nccs3)C4=O)cc2)cc1)c1ccc2c(c1)C(=O)N(c1nccs1)C2=O` [SST0816], 1000 to 10000 nM.
On to `CC(C)(c1ccc(Oc2ccc3c(c2)C(=O)N(c2cccc(C(=O)O)c2)C3=O)cc1)c1ccc(Oc2ccc3c(c2)C(=O)N(c2cccc(C(=O)O)c2)C3=O)cc1` [SST0851, 3-[5-[4-[2-[4-[2-(3-carboxyphenyl)-1,3-dioxoisoindol-5-yl]oxyphenyl]propan-2-yl]phenoxy]-1,3-dioxoisoindol-2-yl]benzoic acid], for which the IC50 on heparanase (setting [4]) was in the range of 500 to 990 nM. The EC50 in test [1], in test [2] and in test [3] was more than 2500 nM throughout.
As for `O=C(Nc1ccc(O)cc1C(=O)O)c1ccc(Oc2ccc(C(=O)Nc3ccc(O)cc3C(=O)O)cc2)cc1` [SST0810], at heparanase (setting [4]), the IC50 was 1000 to 10000 nM.
On the same count and under the same terms, for `O=C(O)c1ccc(NC(=O)c2ccc(Oc3ccc(C(=O)Nc4ccc(C(=O)O)cc4)cc3)cc2)cc1` [SST0809, 4,4'-[oxybis(benzene-4,1-diylcarbonylimino)]dibenzoic acid] the value was 1000 to 10000 nM.
With `O=C(Nc1ccc2c(O)c(N=Nc3ccc(N=Nc4ccc(S(=O)(=O)O)cc4)cc3S(=O)(=O)O)c(S(=O)(=O)O)cc2c1)Nc1ccc2c(O)c(N=Nc3ccc(N=Nc4ccc(S(=O)(=O)O)cc4)cc3S(=O)(=O)O)c(S(=O)(=O)O)cc2c1` [SST0595], at heparanase (read-out: AGAIA assay (IC50), 2.5 nM heparanase, 100 µM fondaparinux, pH 5.0, 3 h at 37°C, class symbols), the IC50 lay within 500 to 990 nM. Besides, the EC50 in test [1], in test [2] and in test [3] was more than 10000 nM each time.
As to `O=C(Nc1cccc(Oc2ccc(S(=O)(=O)c3ccc(Oc4cccc(NC(=O)c5ccc(F)cc5)c4)cc3)cc2)c1)c1ccc(F)cc1` [SST0812], the IC50 on heparanase (setting [4]) lay within 1000 to 10000 nM.
On the same count and under the same terms, for `O=C(Nc1ccccc1C(=O)O)c1ccc2c(c1)C(=O)N(c1ccc(Oc3ccc(N4C(=O)c5ccc(C(=O)Nc6ccccc6C(=O)O)cc5C4=O)cc3)cc1)C2=O` [SST0600, Benzoic acid, 2,2'-[oxybis[4,1-phenylene(1,3-dihydro-1,3-dioxo-2H-isoindole-2,5-diyl)carbonylimino]]bis-] the value was 1000 to 10000 nM.
With `O=C(O)c1ccc2c(c1)C(=O)N(c1cccc(Oc3cccc(Oc4cccc(N5C(=O)c6ccc(C(=O)O)cc6C5=O)c4)c3)c1)C2=O` [SST0857], the IC50 on heparanase (setting [4]) was 1000 to 10000 nM.
Same read-out and setting: for `O=C(O)c1ccccc1N1C(=O)c2ccc(Oc3ccc(Oc4ccc5c(c4)C(=O)N(c4ccccc4C(=O)O)C5=O)cc3)cc2C1=O` [SST0855, Benzoic acid, 2,2'-[1,4-phenylenebis[oxy(1,3-dihydro-1,3-dioxo-2H-isoindole-5,2-diyl)]]bis-] the value was 1000 to 10000 nM; for `O=C(O)c1ccc(N2C(=O)c3ccc(Oc4cccc(Oc5ccc6c(c5)C(=O)N(c5ccc(C(=O)O)cc5)C6=O)c4)cc3C2=O)cc1` [SST0860, Benzoic acid, 4,4'-[1,3-phenylenebis[oxy(1,3-dihydro-1,3-dioxo-2H-isoindole-5,2-diyl)]]bis-], 1000 to 10000 nM; for `O=C(O)c1ccc2c(c1)C(=O)N(c1ccc(Oc3ccc(Oc4ccc(N5C(=O)c6ccc(C(=O)O)cc6C5=O)cc4)cc3)cc1)C2=O` [SST0813], 1000 to 10000 nM.
Regarding `O=C(Nc1ccccc1C(=O)O)c1ccc2c(c1)C(=O)N(c1ccc(S(=O)(=O)c3ccc(N4C(=O)c5ccc(C(=O)Nc6ccccc6C(=O)O)cc5C4=O)cc3)cc1)C2=O` [SST0602, 2-[[2-[4-[4-[5-[(2-carboxyphenyl)carbamoyl]-1,3-dioxoisoindol-2-yl]phenyl]sulfonylphenyl]-1,3-dioxoisoindole-5-carbonyl]amino]benzoic acid], the IC50 at heparanase (setting [4]) fell in the range of 1000 to 10000 nM.
On to `CC(C)(c1ccc(Oc2ccc3c(c2)C(=O)N(c2ccc(C(=O)O)cc2)C3=O)cc1)c1ccc(Oc2ccc3c(c2)C(=O)N(c2ccc(C(=O)O)cc2)C3=O)cc1` [SST0852, 4-[5-[4-[2-[4-[2-(4-carboxyphenyl)-1,3-dioxoisoindol-5-yl]oxyphenyl]propan-2-yl]phenoxy]-1,3-dioxoisoindol-2-yl]benzoic acid], for which the IC50 at heparanase (setting [4]) was 1000 to 10000 nM.
For `O=C(O)c1ccc(Oc2ccc3c(c2)C(=O)N(c2ccc(Oc4ccc(N5C(=O)c6ccc(Oc7ccc(C(=O)O)cc7)cc6C5=O)cc4)cc2)C3=O)cc1` [SST0807, 4-[2-[4-[4-[5-(4-carboxyphenoxy)-1,3-dioxoisoindol-2-yl]phenoxy]phenyl]-1,3-dioxoisoindol-5-yl]oxybenzoic acid], on heparanase (setting [4]), the IC50 is 1000 to 10000 nM.
The compound `O=C(Nc1ccc(-c2nc3ccccc3o2)cc1)c1ccc(Oc2ccc(C(=O)Nc3ccc(-c4nc5ccccc5o4)cc3)cc2)cc1` [SST0805] gave an IC50 against heparanase of 1000 to 10000 nM.
As for `O=C(Nc1nc(-c2ccc3ccccc3c2)cs1)c1ccc(Oc2ccc(C(=O)Nc3nc(-c4ccc5ccccc5c4)cs3)cc2)cc1` [SST0803], the IC50 on heparanase (setting [4]) lay in the range of 1000 to 10000 nM.
Still for that read-out and setting: for `Nc1ccc2cc(S(=O)(=O)O)cc(O)c2c1N=Nc1ccc(NC(=O)Nc2ccc(N=Nc3c(N)ccc4cc(S(=O)(=O)O)cc(O)c34)c(S(=O)(=O)O)c2)cc1S(=O)(=O)O` [SST0753] the value was 1000 to 10000 nM; for `O=C(Nc1cccc(C(=O)c2ccccc2)c1)c1ccc(Oc2ccc(C(=O)Nc3cccc(C(=O)c4ccccc4)c3)cc2)cc1` [SST0801], 1000 to 10000 nM.
In the case of `O=C(O)c1ccc(Oc2cccc(N3C(=O)c4ccc(Oc5ccc6c(c5)C(=O)N(c5cccc(Oc7ccc(C(=O)O)c(C(=O)O)c7)c5)C6=O)cc4C3=O)c2)cc1C(=O)O` [SST0853, 4-[3-[5-[2-[3-(3,4-dicarboxyphenoxy)phenyl]-1,3-dioxoisoindol-5-yl]oxy-1,3-dioxoisoindol-2-yl]phenoxy]phthalic acid], the IC50 on heparanase (setting [4]) was in the range of 500 to 990 nM. The EC50 in test [1], in test [2] and in test [3] was more than 2500 nM each time.
For `O=C(Nc1ccc(O)cc1C(=O)O)c1ccc(S(=O)(=O)c2ccc(C(=O)Nc3ccc(O)cc3C(=O)O)cc2)cc1` [SST0817], the IC50 against heparanase lay within 500 to 990 nM.
With `O=C(Nc1nc(-c2ccc(F)cc2)cs1)c1ccc(Oc2ccc(C(=O)Nc3nc(-c4ccc(F)cc4)cs3)cc2)cc1` [SST0815], the IC50 at heparanase (setting [4]) lay in the range of 1000 to 10000 nM.
